The OPERA property sets (Mansouri et al. 2018)

SMILES | logP
CC(C)NCC(O)COCCc1ccccc1 (stereo not given) | 1.76
CC(C)(C)NCC(O)COCC=Cc1ccccc1 (stereo not given) | 2.29
O=C(Cc1ccccc1)NCCNCC(O)COCCOc1ccccc1 (stereo not given) | 0.75
O=C(Cc1ccccc1)NCCNCC(O)COCCCc1ccccc1 (stereo not given) | 1.62
CC(C)(C)NCC(O)COC1CCCc2ccccc21 (stereo not given) | 3.55
O=C(Cc1ccccc1)NCCNCC(O)OCc1ccccc1 (stereo not given) | 1.05
O=C(Cc1ccccc1)NCCNCC(O)COc1ccccc1 (stereo not given) | 0.63
CC(C)NCC(O)COCc1ccccc1 (stereo not given) | 1.62
CC(C)(C)NCC(O)COCCc1ccccc1 (stereo not given) | 2.52
CC(C)NCC(O)COCCCC(C)c1ccccc1 (stereo not given) | 2.95
CC(C)C(=O)NCCNCC(O)COCC=Cc1ccccc1 (stereo not given) | 0.51
O=C(Cc1ccccc1)NCCNCC(O)COC1CCCc2ccccc21 (stereo not given) | 1.68
CC(C)(C)NCC(O)COCc1ccccc1 (stereo not given) | 1.7
CC(C)(C)NCC(O)COc1ccccc1 (stereo not given) | 1.5
CC(C)C(=O)NCCNCC(O)COCc1ccccc1 (stereo not given) | 0.63
CC(C)C(=O)NCCNCC(O)COC1CCCc2ccccc21 (stereo not given) | 1.99
CC(C)NCC(O)COCCOc1ccccc1 (stereo not given) | 1.63
CC(C)C(=O)NCCNCC(O)COCCOc1ccccc1 (stereo not given) | 0.48
O=C(Cc1ccccc1)NCCNCC(O)COCC=Cc1ccccc1 (stereo not given) | 1.76
CC(C)C(=O)NCCNCC(O)COc1ccccc1 (stereo not given) | 1.14
CC(C)C(=O)NCCNCC(O)COCCCc1ccccc1 (stereo not given) | 1.25
CC(C)(C)NCC(O)COCCOc1ccccc1 (stereo not given) | 2.35
CC(C)NCC(O)COCC=Cc1ccccc1 (stereo not given) | 2.15
CC(C)C(=O)NCCNCC(O)COCCc1ccccc1 (stereo not given) | 0.95
O=C(Cc1ccccc1)NCCNCC(O)COCCc1ccccc1 (stereo not given) | 1.24
